The results in this text go back to patent publication US6355633B1, “Aryl sulfonic acids and derivatives as FSH antagonists” (American Home Products Corporation, priority 1999, dated 2002).

pIC50: −log10 of the molar value. Like-named read-outs stand apart in the source and are kept apart here.

The target in the test is T1, FSH receptor (Rattus norvegicus, UniProt P20395).
T1 construct: endogenous in cells; host or cells: primary ovarian granulosa cells of DES-treated immature Sprague-Dawley rats
T1 sequence (P20395 18-692): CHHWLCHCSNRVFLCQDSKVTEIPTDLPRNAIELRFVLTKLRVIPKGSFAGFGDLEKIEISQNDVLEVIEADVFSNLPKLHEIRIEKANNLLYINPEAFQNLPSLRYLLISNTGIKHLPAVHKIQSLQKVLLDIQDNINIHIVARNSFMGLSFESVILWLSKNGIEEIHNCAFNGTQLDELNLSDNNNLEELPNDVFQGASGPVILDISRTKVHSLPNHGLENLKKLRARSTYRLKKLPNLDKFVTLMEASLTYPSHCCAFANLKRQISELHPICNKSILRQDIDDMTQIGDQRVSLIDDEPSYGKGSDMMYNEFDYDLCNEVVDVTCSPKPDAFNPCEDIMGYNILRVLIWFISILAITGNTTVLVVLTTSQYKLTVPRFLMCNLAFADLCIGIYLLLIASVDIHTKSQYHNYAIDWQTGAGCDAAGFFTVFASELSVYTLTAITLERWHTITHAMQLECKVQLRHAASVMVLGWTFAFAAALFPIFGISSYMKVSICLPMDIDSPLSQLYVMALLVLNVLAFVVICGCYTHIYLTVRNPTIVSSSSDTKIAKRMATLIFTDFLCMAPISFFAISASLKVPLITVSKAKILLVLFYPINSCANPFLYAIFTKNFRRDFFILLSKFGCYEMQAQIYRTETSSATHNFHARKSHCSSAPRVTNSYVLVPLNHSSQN
Put plainly: In Vitro Bio-test Procedure of Agonists and Antagonists to the FSH Receptor Using Primary Cultures of Rat Granulosa (estradiol secretion). It is filed as cell-based. How it is done: In Vitro Bio-test Procedure of Agonists and Antagonists to the FSH Receptor Using Primary Cultures of Rat Granulosa
Materials and Methods: Reagents
The concentration of vehicle was maintained constant throughout all dilutions.
Preparation of Granulosa Cells: Twenty-four day-old immature female Sprague-Dawley rats (Charles River Laboratories, Wilmington, Mass.) were used as donors for ovarian granulosa cells. The animals were treated by single daily injections of 100 mg/kg diethylstilbestrol (DES) in oil over three days. On the fourth day, animals were sacrificed by CO2 asphyxiation and the ovaries were removed. Ovaries were washed three times in 50 mL of sterile HEPES-buffered saline (HBS, pH 7.4). Granulosa cells were harvested by incubating ovaries in a hypertonic medium consisting of serum-free McCoy*s SA medium (Gibco Life Sciences, Grand Island, N.Y.) supplemented with […], […], 5 ng/mL sodium selenite (ITS, Sigma Chemical Co., St. Louis Mo.), […] L-glutamine, 100 nM testosterone, 100 nM DES and 100 U/mL penicillin/[…]/250 ng/mL amphotericin B (antibiotic/antimycotic, Gibco) containing 0.5 M sucrose and 0.1 mM EGTA. Ovaries were then incubated for 45 min. at 37 C. in a humidified incubator gassed with 95% air/5% CO2. They were washed 3 times with 10 mL isotonic medium (hypertonic medium without sucrose and EGTA) and incubated another 45 min. in isotonic medium at 37 C. Granulosa cells were harvested by squeezing the ovaries between two sterile glass microscope slides. Isolated granulosa cells were then placed in an 50 mL centrifuge tube and washed two times by the addition of 50 mL serum-free McCoy*s 5A medium followed by centrifugation at 700×g for 5 min. After the final spin, the cells were resuspended by gentle trituration in 25 mL serum-free medium, an aliquot counted in a hemocytometer and viability estimated by trypan blue exclusion. Cells were plated into 24-well Nunc tissue culture plates at 200,000 viable cells/well in […].
Procedure: Following plating of the cells, the plates are incubated at 37 C for 2-4 hours at which time the treatments are added to the cells. Treatments are added to the wells at 2× the desired final concentration in […] in isotonic medium containing 0.2% BSA. The cells are incubated at 37 C. for 72 h. At the end of the incubation period, the medium is removed from the wells and tested for estradiol concentration by radioimmunoassay.
Experimental Groups: In the 24-well format, the plate was divided into 6 columns of 4 wells/column. One plate per compound was used to test either agonist or antagonist modes. […]
Four different doses of compound were tested in the antagonist mode. In addition, one column was used for a negative control (vehicle alone) and the other remaining column for a positive control (ED50 of FSH alone).
The doses of compound chosen to test were extrapolated from the initial functional screening process. Along with the plates testing compounds, another plate was run in parallel using a dose-response of FSH (0.01-100 ng/mL) as a positive control.
Analysis of Results: Estradiol was expressed as pg/mL. Estradiol secretion in agonist mode, or the ability of the compound to inhibit FSH-induced estradiol secretion in antagonist, was compared to the appropriate negative and positive controls. Data were analyzed statistically by analysis of variance with Huber weighting of log transformed data. Paired differences were determined using the LSD test
Reference Compounds: Test compounds were compared to the effect of purified or recombinant human FSH.

The mark [1] stands for this setting: antagonist mode, inhibition of FSH-induced estradiol secretion (ED50 of FSH, 0.5 ng/mL), rat granulosa cells, 72 h.

Usually pIC50 stands for the IC50 on a negative log10 scale, so that one unit is a factor of ten. Regarding “2,2′-[(E)-1,2-Ethenediyl]bis[5-[[4-(methylthio)-3-(4-morpholinylsulfonyl)benzoyl]amino]benzenesulfonic Acid] [Example 30b]”, the negative-log IC50 (pIC50) under setting [1] was 5.82.
`COCCOCCOc1ccc(C(=O)Nc2ccc(/C=C/c3ccc(NC(=O)c4ccc(OCCOCCOC)c(S(=O)(=O)N5CCOCC5)c4)cc3S(=O)(=O)O)c(S(=O)(=O)O)c2)cc1S(=O)(=O)N1CCOCC1` [Example 30a, 2,2′-[(E)-1,2-Ethenediyl]bis[5-[[4-[2-(2-methoxyethoxy)ethoxy]-3-(4-morpholinylsulfonyl)benzoyl]amino]benzenesulfonic Acid]]: the pIC50 is 5.72.
`CS(=O)(=O)c1ccc(C(=O)Nc2ccc(/C=C/c3ccc(NC(=O)c4ccc(S(C)(=O)=O)c([N+](=O)[O-])c4)cc3S(=O)(=O)O)c(S(=O)(=O)O)c2)cc1[N+](=O)[O-]` [Example 30c, 2.2′-[(E)-1,2-Ethenediyl]bis[5-[[(4-methylsulfonyl)-3-(nitro)-benzoyl]amino]benzenesulfonic Acid]] had a pIC50 under setting [1] of 5.42.
For the compound `CS(=O)(=O)c1ccc(C(=O)Nc2ccc(/C=C/c3ccc(NC(=O)c4ccc(S(C)(=O)=O)c(S(=O)(=O)N5CCOCC5)c4)cc3S(=O)(=O)O)c(S(=O)(=O)O)c2)cc1S(=O)(=O)N1CCOCC1` [Example 30d, 2,2′-[(E)-1,2-Ethenediyl]bis[5-[[4-(methylsulfonyl)-3-(4-morpholinylsulfonyl)benzoyl]amino]benzenesulfonic Acid]], the negative logarithm of the IC50 (pIC50) is 5.55.
Compound `CSc1ccc(C(=O)Nc2ccc(/C=C/c3ccc(NC(=O)c4ccc(S(C)(=O)=O)c([N+](=O)[O-])c4)cc3S(=O)(=O)O)c(S(=O)(=O)O)c2)cc1S(=O)(=O)N1CCOCC1` [Example 30e] showed a pIC50 of 5.74.
`COCCNS(=O)(=O)c1cc(C(=O)Nc2ccc(/C=C/c3ccc(NC(=O)c4ccc(S(C)(=O)=O)c([N+](=O)[O-])c4)cc3S(=O)(=O)O)c(S(=O)(=O)O)c2)ccc1OC` [Example 30f] had a pIC50 of 5.10.
The compound `COc1ccc(C(=O)Nc2ccc(/C=C/c3ccc(NC(=O)c4ccc(S(C)(=O)=O)cc4)cc3S(=O)(=O)O)c(S(=O)(=O)O)c2)cc1S(=O)(=O)N1CCOCC1` [Example 30g] gave a negative logarithm of the IC50 (pIC50) under setting [1] of 5.62.
`COc1ccc(C(=O)Nc2ccc(/C=C/c3ccc(NC(=O)c4ccc(OC)c(S(=O)(=O)N5CCS(=O)(=O)CC5)c4)cc3S(=O)(=O)O)c(S(=O)(=O)O)c2)cc1S(=O)(=O)N1CCS(=O)(=O)CC1` [Example 30k, 2,2′-[(E)-1,2-Ethenediyl]bis[5-[[3-[(1,1-dioxido-4-thiomorpholinyl)sulfonyl]-4-methoxybenzoyl]amino]benzenesulfonic Acid]]: the pIC50 was 5.51.
`COCCNS(=O)(=O)c1cc(C(=O)Nc2ccc(/C=C/c3ccc(NC(=O)c4ccc(OC)c(S(=O)(=O)NCCOC)c4)cc3S(=O)(=O)O)c(S(=O)(=O)O)c2)ccc1OC` [Example 30m, 2,2′-[(E)-1,2-Ethenediyl]bis[5-[[4-methoxy-3-[[(2-methoxyethyl)amino]sulfonyl]benzoyl]amino]benzenesulfonic Acid]] showed a negative logarithm of the IC50 (pIC50) of 5.17.
For the compound `CS(=O)(=O)c1ccc(C(=O)Nc2ccc(/C=C/c3ccc(NC(=O)c4ccc(S(C)(=O)=O)cc4)cc3S(=O)(=O)O)c(S(=O)(=O)O)c2)cc1` [Example 30q, 2,2′-[(E)-1,2-Ethenediyl]bis[5-[[4-(methylsulfonyl)benzoyl]amino]benzenesulfonic Acid]], the pIC50 was 5.89.
Compound `O=C(Nc1ccc(/C=C/c2ccc(NC(=O)c3ccc(OC4CCOCC4)c(S(=O)(=O)N4CCOCC4)c3)cc2S(=O)(=O)O)c(S(=O)(=O)O)c1)c1ccc(OC2CCOCC2)c(S(=O)(=O)N2CCOCC2)c1` [Example 30r, 2,2′-[(E)-1,2-Ethenediyl]bis[5-[[3-(4-morpholinylsulfonyl)-4-[(tetrahydro-2H-pyran-4-yl)oxy]benzoyl]amino]benzenesulfonic Acid]] gave a negative logarithm of the IC50 (pIC50) of 5.96.
For `COc1ccc(C(=O)Nc2ccc(/C=C/c3ccc(NC(=O)c4ccc(OC)c(S(=O)(=O)N5CCOCC5)c4)cc3S(=O)(=O)O)c(S(=O)(=O)O)c2)cc1S(=O)(=O)N1CCOCC1` [Example 30s, 2,2′-[(E)-1,2-Ethenediyl]bis[5-[[4-methoxy-3-(4-morpholinylsulfonyl)benzoyl]amino]benzenesulfonic Acid]], the negative-log IC50 (pIC50) was 5.92.
In turn, `COCCOc1ccc(C(=O)Nc2ccc(/C=C/c3ccc(NC(=O)c4ccc(OCCOC)c(S(=O)(=O)N5CCOCC5)c4)cc3S(=O)(=O)O)c(S(=O)(=O)O)c2)cc1S(=O)(=O)N1CCOCC1` [Example 30t, 2,2′-[(E)-1,2-Ethenediyl]bis[5-[[4-(2-methoxyethoxy)-3-(4-morpholinylsulfony)benzoyl]amino]benzenesulfonic Acid]] had a negative-log IC50 (pIC50) of 5.85.
With `CCS(=O)(=O)c1ccc(C(=O)Nc2ccc(/C=C/c3ccc(NC(=O)c4ccc(S(=O)(=O)CC)cc4)cc3S(=O)(=O)O)c(S(=O)(=O)O)c2)cc1` [Example 32f, 2,2′-[(E)-1,2-Ethenediyl]bis[5-[[4-(ethylsulfonyl)benzoyl]amino]benzenesulfonic Acid]], the pIC50 is 5.55.
In turn, `COc1ccc(C(=O)Nc2ccc(/C=C/c3ccc(NC(=O)c4ccc(OC)c(S(=O)(=O)N5CCSCC5)c4)cc3S(=O)(=O)O)c(S(=O)(=O)O)c2)cc1S(=O)(=O)N1CCSCC1` [Example 33d, 2,2′-[(E)-1,2-Ethenediyl]bis[5-[[4-methoxy-3-(4-thiomorpholinylsulfonyl)benzoyl]amino]benzenesulfonic Acid]] had a negative-log IC50 (pIC50) of 5.00.
In the case of `COc1ccc(C(=O)Nc2ccc(/C=C/c3ccc(NC(=O)c4ccc(OC)c(S(=O)(=O)N5CCCC5)c4)cc3S(=O)(=O)O)c(S(=O)(=O)O)c2)cc1S(=O)(=O)N1CCCC1` [Example 33e, 2,2′-[(E)-1,2-Ethenediyl]bis[5-[[4-methoxy-3-(1-pyrrolidinylsulfonyl)benzoyl]amino]benzenesulfonic Acid]], the negative logarithm of the IC50 (pIC50) is 5.68.
`COc1ccc(C(=O)Nc2ccc(/C=C/c3ccc(NC(=O)c4ccc(OC)c(S(=O)(=O)N5CCN(C(C)=O)CC5)c4)cc3S(=O)(=O)O)c(S(=O)(=O)O)c2)cc1S(=O)(=O)N1CCN(C(C)=O)CC1` [Example 34a, 2,2′-[(E)-1,2-Ethenediyl]bis[5-[[3-[(4-acetyl-1-piperazinyl)sulfonyl]-4-methoxybenzoyl]amino]benzenesulfonic Acid]] gave a negative logarithm of the IC50 (pIC50) of 4.24.
Turning to `COc1ccc(C(=O)Nc2ccc(/C=C/c3ccc(NC(=O)c4ccc(OC)c(S(=O)(=O)N5CCN(C=O)CC5)c4)cc3S(=O)(=O)O)c(S(=O)(=O)O)c2)cc1S(=O)(=O)N1CCN(C=O)CC1` [Example 34b, 2,2′-[(E)-1,2-Ethenediyl]bis[5-[[3-[(4-formyl-1-piperazinyl)sulfonyl]-4-methoxybenzoyl]amino]benzenesulfonic Acid]], the pIC50 is 5.31.
